Measurements taken from patent US6737383B1, “Herbicidal oxadiazolidines” (priority 1999, dated 2004).

Columns and labels:
bedstraw = assay: Test B pre/postemergence bedstraw; format: in vivo, Galium aparine
How it was run: (§1)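 Test chemicals in a non-phytotoxic solvent mixture with surfactant were sprayed preemergence onto planted seeds and postemergence onto plants 2 to 18 cm tall (1- to 4-leaf stage). After twelve to sixteen days in a greenhouse, injury was visually rated against untreated controls from 0 (no effect) to 10 (complete control).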

corn = assay: Test B pre/postemergence corn; format: in vivo, Zea mays
How it was run: as §1

giant foxtail = assay: Test B pre/postemergence giant foxtail; format: in vivo, Setaria faberii
How it was run: as §1

soybean = assay: Test B pre/postemergence soybean; format: in vivo, Glycine max
How it was run: as §1

rice = assay: Test B flood test rice; format: in vivo, Oryza sativa
How it was run: (§2)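 Flood test on plants grown to the 2-leaf stage; treated plants kept in greenhouse twelve to sixteen days, then visually rated against controls on a 0 (no effect) to 10 (complete control) scale.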

bamyardgrass = assay: Test B flood test barnyardgrass; format: in vivo, Echinochloa crus-galli
How it was run: as §2

smallflower flatsedge = assay: Test B flood test smallflower flatsedge; format: in vivo, Cyperus difformis
How it was run: as §2

surinam grass = assay: Test B pre/postemergence surinam grass; format: in vivo, Brachiaria decumbens
How it was run: as §1

purple nutsedge = assay: Test B pre/postemergence purple nutsedge; format: in vivo, Cyperus rotundus; details: Postemergence
How it was run: as §1

velvetleaf = assay: Test B pre/postemergence velvetleaf; format: in vivo, Abutilon theophrasti
How it was run: as §1

blackgrass = assay: Test B pre/postemergence blackgrass; format: in vivo, Alopecurus myosuroides
How it was run: as §1

wheat = assay: Test B pre/postemergence wheat; format: in vivo, Triticum aestivum
How it was run: as §1

sugar beet = assay: Test B pre/postemergence sugar beet; format: in vivo, Beta vulgaris
How it was run: as §1

wild oat = assay: Test B pre/postemergence wild oat; format: in vivo, Avena fatua
How it was run: as §1

morningglory = assay: Test B pre/postemergence morningglory; format: in vivo, Ipomoea hederacea
How it was run: as §1

duck salad = assay: Test B flood test duck salad; format: in vivo, Heteranthera limosa
How it was run: as §2

rape = assay: Test B pre/postemergence rape; format: in vivo, Brassica napus
How it was run: as §1

crabgrass = assay: Test B pre/postemergence crabgrass; format: in vivo, Digitaria sanguinalis
How it was run: as §1

cocklebur = assay: Test B pre/postemergence cocklebur; format: in vivo, Xanthium strumarium
How it was run: as §1

pigweed = assay: Test B pre/postemergence pigweed; format: in vivo, Amaranthus retroflexus
How it was run: as §1

[1] = Preemergence, Rate 62 g/ha, scale of 0 to 10 where 0 is no effect and 10 is complete control
[2] = Preemergence, Rate 250 g/ha, scale of 0 to 10 where 0 is no effect and 10 is complete control
[3] = Preemergence, Rate 500 g/ha, scale of 0 to 10 where 0 is no effect and 10 is complete control
[4] = Rate 62 g/ha, Postemergence, scale of 0 to 10 where 0 is no effect and 10 is complete control
[5] = Rate 125 g/ha, Postemergence, scale 0 to 10
[6] = Rate 125 g/ha, Preemergence, scale of 0 to 10 where 0 is no effect and 10 is complete control
[7] = Rate 500 g/ha, Postemergence, scale 0 to 10, 0 no effect, 10 complete control
[8] = Rate 62 g/ha, headed Pre-emergence (flood test species), scale 0 to 10 (0 no effect, 10 complete control)
[9] = Rate 125 g/ha, Pre-emergence, flood test species, scale 0 to 10 where 0 is no effect and 10 is complete control
[10] = Rate 250 g/ha, Pre-emergence, flood-test species, scale 0 to 10, 0 is no effect, 10 is complete control
[11] = Rate 500 g/ha, Pre-emergence, flood test species, scale 0 to 10 (0 no effect, 10 complete control)

For COCCOCn1c(=O)on(C(=O)N(c2ccc(F)cc2)C(C)C)c1=O [Compound 258], the “Bedstraw plant response rating” value (bedstraw; [1]) was 0, the “Bedstraw plant response rating” value (bedstraw; [2]) was 3 and the “Plant response rating, Bedstraw” value (bedstraw; [3]) was 10. The “Bedstraw plant response rating” value (bedstraw; [4]) was 2, the “Bedstraw plant response rating” value (bedstraw; [5]) was 4 and the “Bedstraw plant response rating” value (bedstraw; [6]) was 3. For the same compound, the “Plant response rating (0 to 10; 0 is no effect, 10 is complete control), Bedstraw” value (bedstraw; Rate 250 g/ha, Postemergence) was 7, the “Bedstraw plant response rating” value (bedstraw; [7]) was 8 and the “Corn plant response rating” value (corn; [1]) was 0. For the same compound, the “Corn plant response rating” value (corn; [2]) was 3, the “Plant response rating, Corn” value (corn; [3]) was 5 and the “Corn plant response rating” value (corn; [4]) was 0. For the same compound, the “Corn plant response rating” value (corn; [5]) was 0, the “Corn plant response rating” value (corn; [6]) was 2 and the “Plant response rating (0 to 10; 0 is no effect, 10 is complete control), Corn” value (corn; Rate 250 g/ha, Postemergence) was 0. The “Corn plant response rating” value (corn; [7]) was 0, the “Giant foxtail plant response rating” value (giant foxtail; [1]) was 8 and the “Giant foxtail plant response rating” value (giant foxtail; [2]) was 10. For the same compound, the “Plant response rating, Giant foxtail” value (giant foxtail; [3]) was 10, the “Giant foxtail plant response rating” value (giant foxtail; [6]) was 9 and the “Plant response rating (0 to 10; 0 is no effect, 10 is complete control), Giant foxtail” value (giant foxtail; Rate 250 g/ha, Postemergence) was 4. The “Giant foxtail plant response rating” value (giant foxtail; [7]) was 7, the “Soybean plant response rating” value (soybean; [1]) was 0 and the “Soybean plant response rating” value (soybean; [2]) was 2. For the same compound, the “Plant response rating, Soybean” value (soybean; [3]) was 3, the “Soybean plant response rating” value (soybean; [6]) was 0 and the “Soybean plant response rating” value (soybean; [7]) was 6. For the same compound, the “Rice plant response rating” value (rice; [8]) was 0, the “Rice plant response rating” value (rice; [9]) was 0 and the “Rice plant response rating” value (rice; [10]) was 0. For the same compound, the “Rice plant response rating” value (rice; [11]) was 0, the “Barnyardgrass plant response rating” value (bamyardgrass; [8]) was 0 and the “Barnyardgrass plant response rating” value (bamyardgrass; [9]) was 0. For the same compound, the “Barnyardgrass plant response rating” value (bamyardgrass; [10]) was 0, the “Barnyardgrass plant response rating” value (bamyardgrass; [11]) was 0 and the “S. Flatsedge plant response rating” value (smallflower flatsedge; [8]) was 0. For the same compound, the “S. Flatsedge plant response rating” value (smallflower flatsedge; [9]) was 0, the “S. Flatsedge plant response rating” value (smallflower flatsedge; [10]) was 0 and the “S. Flatsedge plant response rating” value (smallflower flatsedge; [11]) was 0. For the same compound, the “B. signalgrass plant response rating” value (surinam grass; [1]) was 0, the “B. signalgrass plant response rating” value (surinam grass; [2]) was 7 and the “Plant response rating, B. signalgrass” value (surinam grass; [3]) was 8. The “B. signalgrass plant response rating” value (surinam grass; [4]) was 0, the “B. signalgrass plant response rating” value (surinam grass; Rate 125 g/ha, Postemergence, scale 0 (no effect) to 10 (complete control)) was 0 and the “B. signalgrass plant response rating” value (surinam grass; [6]) was 4. For the same compound, the “Plant response rating (0 to 10; 0 is no effect, 10 is complete control), B. signalgrass” value (surinam grass; Rate 250 g/ha, Postemergence) was 4, the “B. signalgrass plant response rating” value (surinam grass; [7]) was 8 and the “Plant response rating (0 to 10; 0 is no effect, 10 is complete control), Nutsedge” value (purple nutsedge; Rate 250 g/ha) was 0. The “Nutsedge plant response rating” value (purple nutsedge; Rate 500 g/ha, scale 0 to 10, 0 no effect, 10 complete control) was 0, the “Velvetleaf plant response rating” value (velvetleaf; [1]) was 2 and the “Velvetleaf plant response rating” value (velvetleaf; [2]) was 5. The “Plant response rating, Velvetleaf” value (velvetleaf; [3]) was 7, the “Velvetleaf plant response rating” value (velvetleaf; [6]) was 5 and the “Velvetleaf plant response rating” value (velvetleaf; [7]) was 0. The “Blackgrass plant response rating” value (blackgrass; [1]) was 6, the “Blackgrass plant response rating” value (blackgrass; [2]) was 8 and the “Plant response rating, Blackgrass” value (blackgrass; [3]) was 8. The “Blackgrass plant response rating” value (blackgrass; [4]) was 1, the “Blackgrass plant response rating” value (blackgrass; [5]) was 5 and the “Blackgrass plant response rating” value (blackgrass; [6]) was 8. For the same compound, the “Plant response rating (0 to 10; 0 is no effect, 10 is complete control), Blackgrass” value (blackgrass; Rate 250 g/ha, Postemergence) was 7, the “Blackgrass plant response rating” value (blackgrass; [7]) was 7 and the “Wheat plant response rating” value (wheat; [1]) was 0. The “Wheat plant response rating” value (wheat; [2]) was 4, the “Plant response rating, Wheat” value (wheat; [3]) was 7 and the “Wheat plant response rating” value (wheat; [6]) was 4. For the same compound, the “Wheat plant response rating” value (wheat; [7]) was 6, the “Sugarbeets plant response rating” value (sugar beet; [1]) was 0 and the “Sugarbeets plant response rating” value (sugar beet; [2]) was 5. For the same compound, the “Plant response rating, Sugarbeets” value (sugar beet; [3]) was 7, the “Sugarbeets plant response rating” value (sugar beet; [6]) was 2 and the “Sugarbeets plant response rating” value (sugar beet; [7]) was 2. For the same compound, the “Wild oats plant response rating” value (wild oat; [1]) was 2, the “Wild oats plant response rating” value (wild oat; [2]) was 5 and the “Plant response rating, Wild oats” value (wild oat; [3]) was 6. For the same compound, the “Wild oats plant response rating” value (wild oat; [6]) was 4, the “Wild oats plant response rating” value (wild oat; [7]) was 3 and the “Morningglory plant response rating” value (morningglory; [1]) was 0. The “Morningglory plant response rating” value (morningglory; [2]) was 0, the “Plant response rating, Morningglory” value (morningglory; [3]) was 0 and the “Morningglory plant response rating” value (morningglory; [6]) was 0. The “Plant response rating (0 to 10; 0 is no effect, 10 is complete control), Morningglory” value (morningglory; Rate 250 g/ha, Postemergence) was 7, the “Morningglory plant response rating” value (morningglory; [7]) was 10 and the “Ducksalad plant response rating” value (duck salad; [8]) was 0. The “Ducksalad plant response rating” value (duck salad; [9]) was 0, the “Ducksalad plant response rating” value (duck salad; [10]) was 0 and the “Ducksalad plant response rating” value (duck salad; [11]) was 0. For the same compound, the “Rape plant response rating” value (rape; [1]) was 0, the “Rape plant response rating” value (rape; [2]) was 5 and the “Plant response rating, Rape” value (rape; [3]) was 7. The “Rape plant response rating” value (rape; [6]) was 1, the “Plant response rating (0 to 10; 0 is no effect, 10 is complete control), Rape” value (rape; Rate 250 g/ha, Postemergence) was 0 and the “Rape plant response rating” value (rape; [7]) was 3. The “Crabgrass plant response rating” value (crabgrass; [1]) was 3, the “Crabgrass plant response rating” value (crabgrass; [2]) was 9 and the “Plant response rating, Crabgrass” value (crabgrass; [3]) was 10. The “Crabgrass plant response rating” value (crabgrass; [6]) was 7, the “Plant response rating (0 to 10; 0 is no effect, 10 is complete control), Crabgrass” value (crabgrass; Rate 250 g/ha, Postemergence) was 2 and the “Crabgrass plant response rating” value (crabgrass; [7]) was 5. The “Cocklebur plant response rating” value (cocklebur; [1]) was 0, the “Cocklebur plant response rating” value (cocklebur; [2]) was 0 and the “Plant response rating, Cocklebur” value (cocklebur; [3]) was 0. For the same compound, the “Cocklebur plant response rating” value (cocklebur; [4]) was 0, the “Cocklebur plant response rating” value (cocklebur; [5]) was 0 and the “Cocklebur plant response rating” value (cocklebur; [6]) was 0. For the same compound, the “Plant response rating (0 to 10; 0 is no effect, 10 is complete control), Cocklebur” value (cocklebur; Rate 250 g/ha, Postemergence) was 0, the “Cocklebur plant response rating” value (cocklebur; [7]) was 1 and the “Redroot pigweed plant response rating” value (pigweed; [1]) was 0. The “Redroot pigweed plant response rating” value (pigweed; [2]) was 7, the “Plant response rating, Redroot pigweed” value (pigweed; [3]) was 10 and the “Redroot pigweed plant response rating” value (pigweed; [6]) was 2. For the same compound, the “Plant response rating (0 to 10; 0 is no effect, 10 is complete control), Redroot pigweed” value (pigweed; Rate 250 g/ha, Postemergence) was 2 and the “Redroot pigweed plant response rating” value (pigweed; [7]) was 3.
